Consider two compounds from patent US11691960B2, “2-[thiophen-2-yl)formamido]-N-(phenyl)-2-methylpropanamide derivatives and the use thereof as medicament” (Boehringer Ingelheim International GmbH, priority 2020, dated 2023).

The target of one data set is MDR1 (P-gp) (Homo sapiens (Human), UniProt P08183). The experiment in a line: Assay E: MDCK assay MDR-1 (P-gp). Type of data set: in vitro ADME. As to conditions: for efflux ratio at 2 h, 10 μM: human, MDCK-MDR1, pH 7.4, Table 7, final test concentration 10 μM, read-out: MDCK-MDR1 efflux ratio (Assay E). As to the method: The MDCK assays provide information on the potential of a compound to pass the blood brain barrier. Permeability measurements across polarized, confluent MDCK-MDR1 cell monolayers grown on permeable filter supports are used as an in vitro absorption model: apparent permeability coefficients (PE) of the compounds across the MDCK-MDR1 cell monolayers are measured (pH 7.4, 37° C.) in apical-to-basal (AB) and basal-to-apical (BA) transport direction. The AB permeability (PEAB) represents drug absorption from the blood into the brain and the BA permeability (PEBA) drug efflux from the brain back into the blood via both, passive permeability as well as active transport mechanisms mediated by efflux and uptake transporters that are expressed on the MDCK-MDR1 cells, predominantly by the overexpressed human MDR1. Identical or similar permeabilities in both transport directions indicate passive permeation, vectorial permeability points to additional active transport mechanisms. Higher PEBA than PEAB (PEBA/PEAB >3) indicates the involvement of active efflux mediated by MDR1, which might compromise the goal to achieve sufficient brain exposure.
MDR1 (P-gp), sequence (P08183 whole entry): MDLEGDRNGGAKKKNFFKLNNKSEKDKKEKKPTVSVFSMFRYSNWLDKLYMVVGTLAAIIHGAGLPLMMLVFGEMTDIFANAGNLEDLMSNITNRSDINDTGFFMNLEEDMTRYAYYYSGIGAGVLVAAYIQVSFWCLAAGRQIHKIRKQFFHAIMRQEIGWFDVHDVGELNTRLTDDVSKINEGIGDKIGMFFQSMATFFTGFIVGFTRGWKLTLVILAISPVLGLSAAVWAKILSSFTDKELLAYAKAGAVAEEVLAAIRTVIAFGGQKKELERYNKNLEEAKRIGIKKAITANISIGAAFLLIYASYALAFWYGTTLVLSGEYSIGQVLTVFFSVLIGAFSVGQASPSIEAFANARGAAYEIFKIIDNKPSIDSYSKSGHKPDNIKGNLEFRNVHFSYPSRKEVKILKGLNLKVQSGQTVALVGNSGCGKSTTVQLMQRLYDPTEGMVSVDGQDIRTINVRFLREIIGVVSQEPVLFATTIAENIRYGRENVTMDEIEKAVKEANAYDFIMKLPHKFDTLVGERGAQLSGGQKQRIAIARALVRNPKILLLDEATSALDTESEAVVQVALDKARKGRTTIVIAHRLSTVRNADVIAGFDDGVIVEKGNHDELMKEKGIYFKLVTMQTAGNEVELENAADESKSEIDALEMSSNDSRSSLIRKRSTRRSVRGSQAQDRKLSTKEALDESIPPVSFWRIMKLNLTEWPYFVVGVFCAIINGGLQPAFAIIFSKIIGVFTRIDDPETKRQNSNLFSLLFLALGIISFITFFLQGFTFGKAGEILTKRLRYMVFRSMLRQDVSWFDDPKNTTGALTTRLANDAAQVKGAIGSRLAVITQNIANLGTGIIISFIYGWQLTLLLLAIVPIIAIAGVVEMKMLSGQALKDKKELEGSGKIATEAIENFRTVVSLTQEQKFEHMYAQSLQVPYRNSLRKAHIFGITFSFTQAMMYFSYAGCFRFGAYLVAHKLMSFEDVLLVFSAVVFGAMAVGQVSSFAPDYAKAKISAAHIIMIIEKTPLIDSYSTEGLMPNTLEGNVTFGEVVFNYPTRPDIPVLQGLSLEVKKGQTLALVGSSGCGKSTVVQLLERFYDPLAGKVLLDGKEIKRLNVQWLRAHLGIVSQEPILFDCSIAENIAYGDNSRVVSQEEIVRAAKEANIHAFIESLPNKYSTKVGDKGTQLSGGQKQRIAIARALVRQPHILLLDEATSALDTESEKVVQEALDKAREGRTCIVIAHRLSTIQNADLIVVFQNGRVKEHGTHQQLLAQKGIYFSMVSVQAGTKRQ
Assay E. MDCK assay MDR-1 (P-gp)
Apparent permeability coefficients (Papp) of the compounds across MDCK-MDR1 monolayers (MDCKII cells transfected with human MDR1 gene) are measured in apical-to-basal (AB) and basal-to-apical (BA) direction.
MDCK-MDR1 cells (6×10^5 cells/cm^2) are seeded onto filter inserts (Corning, Transwell, polycarbonate, 0.4 μm pore size) and cultured for 9 to 10 days. Compounds dissolved in DMSO stock solution (1-20 mM) are diluted with HTP-4 buffer (128.13 mM NaCl, 5.36 mM KCl, 1 mM MgSO4, 1.8 mM CaCl2, 4.17 mM NaHCO3, 1.19 mM Na2HPO4, 0.41 mM NaH2PO4, 15 mM HEPES, 20 mM glucose, pH 7.4) supplemented with 0.25% BSA to prepare the transport solutions, resulting in a final test concentration of 1 μM or 10 μM and a final DMSO content of 0.5%. The transport solution is applied to the apical or basolateral donor side for measuring A-B or B-A permeability, respectively. The receiver side contains HTP-4 buffer supplemented with 0.25% BSA. Samples are collected at the start and end of experiment from the donor and at various time intervals for up to 2 hours from the receiver side for concentration measurement by HPLC-MS/MS. Sampled receiver volumes are replaced with fresh receiver solution.
All data reported for Assay E were measured with a final test concentration of 10 μM.

For the next data set, the target named is human Factor Xa (Homo sapiens (Human), UniProt P00742). The data set is described as follows: Assay C: human Factor Xa chromogenic substrate assay. The conditions noted are these: for IC50: human Factor Xa 0.86 nM, chromogenic substrate S2765; for Selectivity Assay C/Assay A: ratio IC50 Factor Xa / IC50 IDO1. The format is biochemical. As to the method: Assay C. In Vitro Testing of Human Factor Xa Potency:
Measurement of active human Factor Xa using a specific chromogenic substrate which is labeled with a p-nitro-anilino group (pNA). The cleavage in between the binding of the peptide substrate and the pNA-group is followed by a color change, which can be detected at 405 nm. The amount of cleaved substrate is directly proportional to the amount of active Xa.
[…] (100 U) human Factor Xa (Enzyme Research Laboratories; HFXa1011) were solved in 0.444 ml H2O (Millipore), which accords to a stock solution of 19.28 μM or 225 U/ml. Further dilutions were made in the assay buffer (Tris 100 mM, NaCL 150 mM, adjusted to a pH of 7.8 with HCL, containing 0.1% BSA and 0.05% Tween20). 25 mg (1 vial) of the chromogenic substrate S2765 (Chromogenix; S2765) was solved in 3.5 ml H2O (Millipore) to achieve a stock solution of 10 mM.
Compounds were solved and diluted in DMSO where the final dilution in the assay is 1:10 resulting in a final concentration of 1% DMSO.
• the prefinal dilution step was 1:10 in the assay buffer containing 11% DMSO resulting in 10% DMSO • final dilution in the assay is 1:10 resulting in a final concentration of 1% DMSO
Compounds were tested at final concentrations of 10 μM to 0.003 nM or lower. 5 μl human factor Xa (final concentration 0.86 nM), 2 μl compound dilution or assay buffer (containing 10% DMSO) and 8 μl assay buffer were pipetted in triplicates into a 384-well plate and incubated in the Thermomix at 24° C. for 10 minutes.
After addition of 5 μl chromogenic substrate (final concentration 0.5 mM) the enzyme-substrate reaction started and the kinetic measurement with the SpectraMax Monochromator was started within 1-2 minutes. • Parameter of measurement: (Spectra ax, Monochromator) • Absorbance; 1.LM 405 nM • Kinetic: 16 min each 2nd minute (9 times) • Negative Control (NC) 5 μl human factor Xa+10 μl assay buffer+5 μl Substrate • Positive Control (PC): 5 μl human factor Xa+2 μl Nafamostat (commercially available, final concentration: 1 μM)+8 μl assay buffer+5 μl Substrate • Blank (optional): 15 μl assay buffer+5 μl Substrate
Calculation of IC50, KI and the % effect at the highest concentration (Ratio)
For the calculation the average of the Vmax-values in between 120 sec to 720 sec were taken.
A x/y-Plot was created: x=log (M, Compound); y=vmax (drfu/min)
The data were analyzed with the curve fitting model: log (inhibitor) vs. response—Variable slope (four parameters)
The results of this fit were Top, Bottom, Log (IC50, M), Hillslope and IC50 (M)

The target in another data set is human androgen receptor (Homo sapiens (Human), UniProt P10275). The experiment in a line: Assay B: human androgen receptor luciferase reporter assay (Indigo Biosciences). The format is cell-based. The conditions noted are these: for Selectivity Assay B/Assay A: ratio IC50 androgen receptor / IC50 IDO1. An excerpt:
Assay B. In Vitro Testing of Androgen Receptor Potency:
The human androgen receptor (AR) assay was run using Product #IB03001 from Indigo Biosciences. The cell line provided in this kit carries a reporter gene, induced upon AR stimulation. This reporter gene is cDNA encoding for beetle luciferase, a 62 kD protein originating from the North American firefly (Photinus pyralis). This luciferase catalyzes the mono-oxidation of D-luciferin yielding oxyluciferin, adenosine monophosphate, pyrophosphate, CO2, and photon emission. The luminescence intensity of the reaction is quantified using a luminometer.
To run the assay, the cells are thawed by adding pre-warmed cell recovery medium to each tube, then placed in a 37° C. water bath. 30000 viable cells in 200 μl are plated (collagen coated plates) and incubated at 37° C., ≥85% humidity, 5% CO2 for 24 hours. Media is replaced with compound screening medium. Cells are then challenged with 125 pM (EC80) 6a-Fl Testosterone and compounds are applied in half logarithmic dilutions from 10 μM to 10 nM. Assay plates are then incubated at 37° C., ≥85% humidity, 5% CO2 for 22-24 hours. Media is replaced with luciferase detection reagent and allowed 5 minutes to equilibrate prior to luminescence quantification.
Data Analysis consisted of calculating percentage of control between 100% (Negative control:6a-Fl Testosterone) and 0 (positive control: no 6a-FL Testosterone). Fitting of normalized values was made 4-Parameter sigmoidal binding curve (Log[conc]) vs. signal.
On the technique in general: In a reporter assay the amount or activity of a reporter protein is the signal.

The structures appear in SMILES notation. Bounds are passed on as bounds.

human Factor Xa, sequence (P00742 235-488): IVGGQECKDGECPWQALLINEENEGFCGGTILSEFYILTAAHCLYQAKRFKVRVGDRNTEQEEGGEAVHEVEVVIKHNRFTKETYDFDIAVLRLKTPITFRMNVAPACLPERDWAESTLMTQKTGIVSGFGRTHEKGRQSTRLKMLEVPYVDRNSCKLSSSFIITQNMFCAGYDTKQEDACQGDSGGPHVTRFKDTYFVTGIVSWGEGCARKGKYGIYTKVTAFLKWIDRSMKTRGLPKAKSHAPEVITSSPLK
human Factor Xa, sequence (P00742 41-179 partner): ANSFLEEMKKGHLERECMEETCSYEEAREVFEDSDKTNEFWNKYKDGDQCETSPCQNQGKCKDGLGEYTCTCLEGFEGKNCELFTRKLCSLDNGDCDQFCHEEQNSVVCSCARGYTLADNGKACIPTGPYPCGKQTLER
human androgen receptor, sequence (P10275 whole entry): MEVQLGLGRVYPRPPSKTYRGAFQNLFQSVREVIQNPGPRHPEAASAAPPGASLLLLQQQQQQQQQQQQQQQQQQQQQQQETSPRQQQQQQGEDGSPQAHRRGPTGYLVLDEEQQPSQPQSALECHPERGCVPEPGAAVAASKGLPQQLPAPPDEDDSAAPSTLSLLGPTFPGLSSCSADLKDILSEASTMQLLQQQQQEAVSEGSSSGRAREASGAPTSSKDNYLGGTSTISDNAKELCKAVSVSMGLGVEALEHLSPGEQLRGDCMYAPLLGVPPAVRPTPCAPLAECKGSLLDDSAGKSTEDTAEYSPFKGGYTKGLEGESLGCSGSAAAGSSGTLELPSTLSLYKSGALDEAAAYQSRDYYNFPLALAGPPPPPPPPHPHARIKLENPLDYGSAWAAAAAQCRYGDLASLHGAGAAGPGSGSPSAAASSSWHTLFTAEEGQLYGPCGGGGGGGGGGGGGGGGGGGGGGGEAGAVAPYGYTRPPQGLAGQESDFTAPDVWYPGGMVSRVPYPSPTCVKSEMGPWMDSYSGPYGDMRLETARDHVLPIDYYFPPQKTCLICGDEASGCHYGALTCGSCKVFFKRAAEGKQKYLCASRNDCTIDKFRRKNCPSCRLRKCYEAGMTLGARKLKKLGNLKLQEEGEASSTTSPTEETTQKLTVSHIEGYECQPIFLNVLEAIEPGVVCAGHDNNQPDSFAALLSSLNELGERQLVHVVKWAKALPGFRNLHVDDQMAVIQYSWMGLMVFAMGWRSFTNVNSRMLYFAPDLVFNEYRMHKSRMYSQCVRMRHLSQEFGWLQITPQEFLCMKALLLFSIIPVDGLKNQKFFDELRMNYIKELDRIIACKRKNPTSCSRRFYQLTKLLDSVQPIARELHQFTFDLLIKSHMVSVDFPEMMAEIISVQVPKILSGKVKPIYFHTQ

Regarding `CC(C)(NC(=O)c1ccc(Cl)s1)C(=O)Nc1ccc(Br)cc1` [Example 4, 2-[(5-chlorothiophen-2-yl)formamido]-N-(4-bromophenyl)-2-methylpropanamide], on MDR1 (P-gp), the “in vitro efflux, MDCK-MDR1 (in words)” value is “neither in vitro nor in vivo efflux” and the efflux ratio at 2 h, 10 μM amounted to 0.5. Besides, on human Factor Xa, the IC50 (usually the concentration at which inhibition is half-maximal) was more than 10 µM and the “Selectivity Assay C/Assay A” value is more than 42. Moreover, on human androgen receptor (challenge with 125 pM (EC80) 6a-Fl Testosterone, mean +− standard deviation), the IC50 is more than 10 µM. Further, the “Selectivity Assay B/Assay A” value on human androgen receptor is listed as more than 42.
`CC(C)(NC(=O)c1ccc(Cl)s1)C(=O)Nc1ccc(Cl)c(F)c1` [Example 3, 2-[(5-chlorothiophen-2-yl)formamido]-N-(4-chloro-3-fluorophenyl)-2-methylpropanamide]: on MDR1 (P-gp), the “in vitro efflux, MDCK-MDR1 (in words)” value is “neither in vitro nor in vivo efflux” and the efflux ratio at 2 h, 10 μM came to 0.5. For the same compound, on human Factor Xa, the IC50 is more than 10 µM and the “Selectivity Assay C/Assay A” value was more than 55. Besides, the “Selectivity Assay B/Assay A” value on human androgen receptor came to 33.
